Measurements as given in patent US20140271727A1, “METHOD OF USING AN ANTIDEPRESSANT FOR INCREASING IMMUNITY OF A SUBJECT AND TREATING CANCER” (NATIONAL YANG-MING UNIVERSITY, priority 2013, published 2014).

Columns and labels:
Type in all cases: in vivo, mouse
[1] = system: CT26/luc tumor; experiment: CT26/luc tumor growth in BALB/c mice (caliper tumor volume, BLI); parameters: mean tumor growth time / mean tumor growth delay time: unit not given here; settings: for mean tumor growth delay time: growth time of treated group minus that of never; for mean tumor growth time: time at which tumor volume reaches 400 mm; for mean tumor growth inhibition rate: growth rate of treated group/growth rate of never
Experimental: The details in preparing the materials and processing relative analyses will be illustrated as follows. First, CT-26 murine colon carcinoma cells (obtained from Taiwan Liposome Company, Taipei, Taiwan) were transfected with the luciferase gene (hereafter called “CT26/luc”). The CT26/luc tumor cells were cultured in RPMI 1640 medium (Invitrogen) supplemented with 10% fetal bovine serum (Hyclone), 100 units/ml of penicillin, and […] streptomycin (Gibco-BRL) at 37° C. in a 5% CO2 atmosphere.
(§1) Second, all animal study protocols were approved by the Institutional Animal Care and Use Committee (IACAU) of National Yang Ming University. Mirtazapine (0.25 mg) was dissolved in 0.05 ml of 0.9% NaCl plus 0.5% absolute ethanol for each mouse (i.e. 10 mg/kg.) Male BALB/c mice (initial weights 25±2 g, and purchased from the National Laboratory Animal Center, Taipei, Taiwan) were housed in the cages, five mice per cage, under a 12:12 h reverse light/dark cycle with lights off at 6 pm Animals were handled and weighed daily for a week to reduce any non-specific stress responses. And then, please refer to FIG. 1A and FIG. 1B, FIG. 1A and FIG. 1B are diagrams showing the experimental designs according to an embodiment of the present invention. […] “Wild-type” means the mice are monitored without tumor inoculation and mirtazapine treatment, drug means the mice are monitored with continuous mirtazapine treatment but without tumor inoculation, never means the mice are monitored with tumor inoculation and daily 0.05 ml of 0.9% NaCl plus 0.5% absolute ethanol treatment but without mirtazapine treatment, always means the mice are monitored with mirtazapine treatment initiated 2 weeks before the tumor inoculation, and concurrent means the mice are monitored with tumor inoculation and mirtazapine treatment on the same day, and after means the mice are monitored with mirtazapine treatment initiated 2 weeks post the tumor inoculation. That is, the mice were assayed on day 22 for behaviors, and then sacrificed for the measurement of lymphocyte subsets and performed with ex vivo autoradiography.
Accordingly, the CT26/luc cells (2×10^6 cells/200 μL) suspended in the serum-free RPMI medium were transplanted subcutaneously into the dorsal region of the right thighs of the BALB/c mice. 10 mg/kg/d mirtazapine dissolved in 0.9% sodium chloride and 0.5% ethanol was administered to mice by gavage daily till mice expired or terminated on day 67 post tumor inoculation. Survival rate and interval were assayed for never, always, concurrent, and after (n=10 per group).
As to the tumor growth, it was monitored using a digital caliper twice a week. The tumor volume was calculated according the following formula: […]
0.5236×length×width×thickness
Bioluminescence imaging (hereafter called “BLI”) used for tumor size tracking was performed with an IVIS50 animal imaging system (Xenogen Corp., USA).

[2] = system: IL-12p70; experiment: Serum IL-12p70 (sIL-12) ELISA in BALB/c mice
Experimental: as §1
As to the quantification of interleukin-12 (hereafter called “IL-12”), the whole blood withdrawn from the pouch of each mouse was centrifuged at 600×g for 20 min, and serum was collected. The serum IL-12p70 (sIL-12) level was determined using an ELISA kit (R&D Systems, Taiwan). Identification for the lymph node cluster of differentiated CD4+ T helper and CD8+T-cytotoxic lymphocyte subsets was assayed. Briefly, the lymphocytes isolated from the lymph nodes of groins of mice were stained with phycoerythrin-conjugated antimouse CD4 (CD4-PE) monoclonal antibody and peridininchlorophyll-protein-complex-conjugated anti-mouse CD8 (CD8-PerCP) monoclonal antibody (BioLegend, USA). Lymphocyte subsets were identified by FACS analysis using a FACS Calibur flow cytometer. Immunohistochemistry (IHC) of CD4 and CD8 was also performed on day 42 post the tumor inoculation. Tumors were then removed, paraffin embedded, and […] sectioning was performed. The sections were immunohistostained with antibodies against CD4 (BioLegend, USA) and CD8 (BioLegend, USA), respectively. The procedures of immunohistostaining were followed the protocols provided with the IHC kit (Millipore, USA). All images were digitally captured on a Scanscope CS system (Aperio, USA).

[3] = system: CT26/luc tumor; experiment: CT26/luc tumor growth in SCID mice; settings: always-SCID vs never-SCID
Text: Also, Applicant divides other six-weeks-old immunodeficient male SCID mice (purchased from the National Laboratory Animal Center, Taiwan) into two groups, such as the group named “never-SCID” (hereafter called “never-SCID”) and the group named “always-SCID” (hereafter called “always-SCID”), as control groups for verifying the involvement of the immune system in the inhibition of the tumor growth by mirtazapine. Never-SCID means that the mice are monitored with tumor inoculation but without mirtazapine treatment, and always-SCID means the mice are monitored with mirtazapine treatment initiated 2 weeks before tumor inoculation. As to the tumor growth, it was monitored using a digital caliper twice a week. The tumor volume was calculated according the following formula: 0.5236×length×width×thickness Bioluminescence imaging (hereafter called “BLI”) used for tumor size tracking was performed with an IVIS50 animal imaging system (Xenogen Corp., USA).

[4] = system: IL-12p70; experiment: Serum sIL-12 in SCID mice; settings: SCID mice after mirtazapine treatment
Text: Also, Applicant divides other six-weeks-old immunodeficient male SCID mice (purchased from the National Laboratory Animal Center, Taiwan) into two groups, such as the group named “never-SCID” (hereafter called “never-SCID”) and the group named “always-SCID” (hereafter called “always-SCID”), as control groups for verifying the involvement of the immune system in the inhibition of the tumor growth by mirtazapine. Never-SCID means that the mice are monitored with tumor inoculation but without mirtazapine treatment, and always-SCID means the mice are monitored with mirtazapine treatment initiated 2 weeks before tumor inoculation. As to the quantification of interleukin-12 (hereafter called “IL-12”), the whole blood withdrawn from the pouch of each mouse was centrifuged at 600×g for 20 min, and serum was collected. The serum IL-12p70 (sIL-12) level was determined using an ELISA kit (R&D Systems, Taiwan). Identification for the lymph node cluster of differentiated CD4+ T helper and CD8+T-cytotoxic lymphocyte subsets was assayed. Briefly, the lymphocytes isolated from the lymph nodes of groins of mice were stained with phycoerythrin-conjugated antimouse CD4 (CD4-PE) monoclonal antibody and peridininchlorophyll-protein-complex-conjugated anti-mouse CD8 (CD8-PerCP) monoclonal antibody (BioLegend, USA). Lymphocyte subsets were identified by FACS analysis using a FACS Calibur flow cytometer. […]

**Q.** Which tumor growth inhibition ([1]; always, concurrent and after vs never, day 22-47 after tumor inoculation, p<0.01) does the source give for `CN1CCN2c3ncccc3Cc3ccccc3C2C1` (stereo not drawn) [mirtazapine] here?
**A.** significant tumor growth inhibition

**Q.** What about the “mean tumor growth delay time” value ([1]; group Always (2 weeks before inoculation)) of the same compound?
**A.** 18.8

**Q.** What about the “mean tumor growth time” value ([1]; group Always: mirtazapine 10 mg/kg/d by gavage initiated 2 weeks before tumor inoculation) of the same compound?
**A.** 41.3

**Q.** What about the “mean tumor growth inhibition rate” value ([1]; group Always) of the same compound?
**A.** 1.8

**Q.** And the “mean tumor growth delay time” value ([1]; group Concurrent (same day as inoculation))?
**A.** 8.2

**Q.** What about the “mean tumor growth time” value ([1]; group Concurrent: mirtazapine 10 mg/kg/d from the day of tumor inoculation) of the same compound?
**A.** 30.9

**Q.** What about the “mean tumor growth inhibition rate” value ([1]; group Concurrent) of the same compound?
**A.** 1.4

**Q.** And the “mean tumor growth delay time” value ([1]; group after (2 weeks post inoculation))?
**A.** 2.8

**Q.** And the “mean tumor growth time” value ([1]; group after: mirtazapine 10 mg/kg/d initiated 2 weeks post tumor inoculation)?
**A.** 25.4

**Q.** What about the “mean tumor growth inhibition rate” value ([1]; group after) of the same compound?
**A.** 1.1

**Q.** What about the sIL-12 concentration increase ([2]; group after (never: 13 folds)) of the same compound?
**A.** 16 folds

**Q.** And the sIL-12 concentration ([2]; group after, 6 weeks post tumor inoculation)?
**A.** dropped to the control level

**Q.** What about the “sIL-12 concentration increase to peak level” value ([2]; group always, peak at 1 wk post tumor cell inoculation) of the same compound?
**A.** 18 folds

**Q.** What about the sIL-12 concentration increase ([2]; group concurrent (never: 13 folds)) of the same compound?
**A.** 17 folds

**Q.** And the “sIL-12 concentration increase to peak level” value ([2]; group drug (no tumor), peak at 0 wk post tumor cell inoculation)?
**A.** 13 folds

**Q.** What about the sIL-12 concentration ([2]; group drug, 4 wks post tumor cell inoculation, never 7 pg/ml) of the same compound?
**A.** 42 pg/mL

**Q.** What about the “tumor inhibition effect in SCID mice” value [3] of the same compound?
**A.** not found

**Q.** What about the “increase of sIL-12 level in SCID mice” value [4] of the same compound?
**A.** not found
